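Step 1: Grow cells in 96-well plates. Step 2: Expose to compound for 48 hours at 5 concentrations. Step 3: Interpolate endpoints linearly; if unreached, use highest concentration. GI50 marks 50% less growth.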 The source made the active and inactive calls. Cut-off read from the data, not from the text of the source: active = GI50 up to about 1.1 µM and inactive = higher.
Legend:
Test in all cases: growth of human tumour cells (NCI), 48 h
XF498 = tested on: XF498
RXF 631 = tested on: RXF 631
KM-20L2 = tested on: KM-20L2
DMS-273 = tested on: DMS-273
DMS-114 = tested on: DMS-114
SNB-78 = tested on: SNB-78
M19-MEL = tested on: M19-MEL
HOP-18 = tested on: HOP-18
DLD-1 = tested on: DLD-1

Measured: GI50

CCOC(=O)N[C@@H]1C(CC(=O)OC)O[C@H]2OC(C)(C)O[C@H]21 (some centres undefined)
inactive: XF498 > 100 µM | RXF 631 > 100 µM | KM-20L2 > 100 µM | DMS-273 > 100 µM | DMS-114 > 100 µM | SNB-78 > 100 µM | M19-MEL > 100 µM | HOP-18 > 100 µM | DLD-1 > 100 µM

CCOP(=O)(OCC)/C(C#N)=C\c1ccc(OC(C)=O)cc1
inactive: XF498 > 100 µM | KM-20L2 > 100 µM | DMS-114 > 100 µM | SNB-78 > 100 µM | M19-MEL > 100 µM | HOP-18 > 100 µM | DLD-1 > 100 µM

Cc1cc2c(=O)c3ccc(Cl)cc3[nH]c2c(C(N)=O)c1C
inactive: XF498 > 100 µM | RXF 631 > 100 µM | KM-20L2 > 100 µM | DMS-273 > 100 µM | DMS-114 > 100 µM | SNB-78 > 100 µM | M19-MEL > 100 µM | DLD-1 > 100 µM

NC(CCc1ncc(-c2ccccc2)s1)C(=O)O (centres undefined)
inactive: RXF 631 > 100 µM | DMS-273 > 100 µM | DMS-114 > 100 µM | SNB-78 > 100 µM | HOP-18 > 100 µM | DLD-1 > 100 µM

NC(CCSC(F)F)C(=O)O (centres undefined)
inactive: XF498 > 100 µM | KM-20L2 > 100 µM | DMS-273 > 100 µM | DMS-114 65.3 µM | SNB-78 > 100 µM | M19-MEL > 100 µM | DLD-1 > 100 µM

NC(=O)C(=Cc1ccc(CP(=O)(O)O)cc1)C(N)=O
inactive: XF498 > 100 µM | KM-20L2 > 100 µM | DMS-273 > 100 µM | DMS-114 > 100 µM | SNB-78 > 100 µM | M19-MEL > 100 µM | HOP-18 > 100 µM | DLD-1 > 100 µM

CCCN1CN(C(C(=O)N[C@@H]2C(=O)N3C2SC(C)(C)C3C(=O)O)c2ccccc2)CSC1=S (some centres undefined)
inactive: XF498 > 100 µM | KM-20L2 > 100 µM | DMS-273 48.8 µM | DMS-114 54 µM | SNB-78 > 100 µM | M19-MEL > 100 µM | HOP-18 > 100 µM | DLD-1 84.1 µM

COC1=CC(=O)C2C(C1=O)[C@@H]1c3ccccc3OC(C)(C)[C@H]21 (some centres undefined)
inactive: XF498 18.1 µM | KM-20L2 27.1 µM | DMS-273 22.9 µM | DMS-114 20.7 µM | SNB-78 18.8 µM | M19-MEL 20.2 µM | DLD-1 19.2 µM

CNS(=O)(=O)NN(C)S(=O)(=O)c1ccc(Br)cc1
inactive: XF498 > 100 µM | RXF 631 > 100 µM | KM-20L2 > 100 µM | DMS-273 > 100 µM | DMS-114 > 100 µM | M19-MEL > 100 µM | DLD-1 > 10 µM

O=C(CC1C(=O)Nc2ccccc2S1(=O)=O)Nc1cccc(Cl)c1 (centres undefined)
inactive: XF498 21.3 µM | RXF 631 19.9 µM | KM-20L2 21.1 µM | DMS-273 14.5 µM | DMS-114 16.1 µM | SNB-78 59.7 µM | M19-MEL 19.1 µM | DLD-1 17.5 µM

CCC1NCC(=O)c2c1[nH]c1ccccc21 (centres undefined)
inactive: KM-20L2 > 100 µM | DMS-273 > 100 µM | DMS-114 > 100 µM | SNB-78 > 100 µM | M19-MEL > 100 µM | HOP-18 > 100 µM | DLD-1 > 100 µM

O=C(O)CCSC(=O)Nc1ccc(/N=N/c2ccccc2)cc1
inactive: XF498 > 100 µM | RXF 631 > 100 µM | KM-20L2 > 100 µM | DMS-273 > 100 µM | DMS-114 61.8 µM | SNB-78 > 100 µM | HOP-18 > 100 µM | DLD-1 > 100 µM

O=C1CC2(C[C@@H]3CCCCCCCCC[C@@H](C3)C2)N1 (some centres undefined)
inactive: XF498 12.2 µM | KM-20L2 15.6 µM | DMS-273 12.3 µM | DMS-114 16.7 µM | SNB-78 23.4 µM | M19-MEL 15.2 µM | HOP-18 10.5 µM

COc1ccc(/C(Cl)=C/c2cc(OC)ccc2OC)cc1
inactive: XF498 71.3 µM | KM-20L2 93.3 µM | DMS-273 35.2 µM | DMS-114 42.3 µM | SNB-78 79.6 µM | M19-MEL 80 µM | HOP-18 > 100 µM | DLD-1 79.4 µM

COC(=O)c1c(-c2ccccc2)sc(-c2cccc3ccccc23)c1C(=O)OC
inactive: KM-20L2 > 100 µM | DMS-273 > 100 µM | SNB-78 > 100 µM | M19-MEL > 100 µM | HOP-18 > 100 µM | DLD-1 18 µM

COc1nc2nccc-2c2occn12
inactive: XF498 > 100 µM | RXF 631 > 100 µM | KM-20L2 > 100 µM | DMS-273 > 100 µM | DMS-114 > 100 µM | SNB-78 > 100 µM | M19-MEL > 100 µM | HOP-18 > 100 µM | DLD-1 > 100 µM

CCOc1ccc(/C=C/C(=O)c2sc(NNC(C)=O)nc2C)cc1
inactive: KM-20L2 > 100 µM | DMS-273 > 100 µM | DMS-114 > 100 µM | SNB-78 > 100 µM | M19-MEL > 100 µM | HOP-18 > 100 µM | DLD-1 > 100 µM

Cc1c(/C=N/NC(=O)c2cc(Br)cc(Br)c2O)c(=O)n(-c2ccccc2)n1C
inactive: XF498 17.6 µM | KM-20L2 58.3 µM | DMS-273 5.25 µM | DMS-114 38.5 µM | SNB-78 > 100 µM | M19-MEL > 100 µM | DLD-1 67.1 µM
